Laboratory results as given in US20060216693A1, “Method of screening compounds which inhibit the initiation of the retrotranscription of the rna of virus hiv-1 and means for implementing same” (priority 2003, published 2006).
Values joined by “and” are separate entries in the source; they are usually repeats but may differ in a detail not shown here. Equal values may be shown once.

Experiments:
[1] = tested on: HIV-1 reverse transcriptase; assay: Synthesis of product corresponding to reverse transcription initiation (addition of first 6 nucleotides to biotinylated tRNAHis primer), scintillation proximity assay; format: biochemical; conditions: calculated
Description: FIG. 7: (−) Synthesis of a Product Corresponding to Retrotranscription Initiation from Biotinylated vRNA complex [His-AC-GAC]/tRNA^His
The signal attenuation is detected with […] of AZTTP. The numbers in bold and italic on the top of histograms corresponds to the percent of residual signal compared to the control without inhibitor.
Reactions are stopped by adding EDTA 25 mM and extension product detection is performed as previously described.

[2] = tested on: HIV-1 reverse transcriptase; conditions: 5 μM inhibitor, 5 μM each dNTP, 30 minute-reaction, 37° C.
[3] = target: HIV-1 reverse transcriptase (Human immunodeficiency virus type 1 group M subtype B, UniProt P04585); conditions: selectivity measured in initiation and elongation (Rigourd and al., 2000); cited from earlier work

Row | Structure (SMILES) | Theoretical signal ([1]; [dTTP]/[AZTTP] = 2, selectivity (AZTTP/dTTP) = 0.6) [%] | Theoretical signal ([1]; [dTTP]/[AZTTP] = 2, selectivity (AZTTP/dTTP) = 0.7) [%] | Theoretical signal ([1]; [dTTP]/[AZTTP] = 50, selectivity (AZTTP/dTTP) = 0.6) [%] | Theoretical signal ([1]; [dTTP]/[AZTTP] = 50, selectivity (AZTTP/dTTP) = 0.7) [%] | inhibition rate of (−) strand strong-stop DNA synthesis [2] | AZTTP incorporation selectivity against dTTP [3]
1 | Cc1cn([C@H]2C[C@H](N=[N+]=[N-])[C@@H](CO[P@](=O)(O)O[P@](=O)(O)OP(=O)(O)O)O2)c(=O)[nH]c1=O [AZTTP] | 60.7 | 56.7 | 97.7 | 97.3 | about 90% | 0.6 and 0.7
2 | Cc1cn([C@H]2C=C[C@@H](COP(=O)(O)OP(=O)(O)OP(=O)(O)O)O2)c(=O)[nH]c1=O [d4TTP] | – | – | – | – | 80% | –
